The results in this text go back to US6620801B2, “17β-amino and hydroxylamino-11β-arylsteroids and their derivatives having agonist or antagonist hormonal properties” (Research Triangle Institute, priority 1998, dated 2003).

The target of test [1] is T1, human progesterone hormone receptor (Homo sapiens, UniProt P06401).
T1 construct: The receptor was obtained in cytosol from human T-47D breast cells and [^3H]-R5020 was used as the radioligand; endogenous in cells; host or cells: human T-47D breast cells (cytosol, 34,000 x g supernatant)
T1 sequence (P06401 1-933): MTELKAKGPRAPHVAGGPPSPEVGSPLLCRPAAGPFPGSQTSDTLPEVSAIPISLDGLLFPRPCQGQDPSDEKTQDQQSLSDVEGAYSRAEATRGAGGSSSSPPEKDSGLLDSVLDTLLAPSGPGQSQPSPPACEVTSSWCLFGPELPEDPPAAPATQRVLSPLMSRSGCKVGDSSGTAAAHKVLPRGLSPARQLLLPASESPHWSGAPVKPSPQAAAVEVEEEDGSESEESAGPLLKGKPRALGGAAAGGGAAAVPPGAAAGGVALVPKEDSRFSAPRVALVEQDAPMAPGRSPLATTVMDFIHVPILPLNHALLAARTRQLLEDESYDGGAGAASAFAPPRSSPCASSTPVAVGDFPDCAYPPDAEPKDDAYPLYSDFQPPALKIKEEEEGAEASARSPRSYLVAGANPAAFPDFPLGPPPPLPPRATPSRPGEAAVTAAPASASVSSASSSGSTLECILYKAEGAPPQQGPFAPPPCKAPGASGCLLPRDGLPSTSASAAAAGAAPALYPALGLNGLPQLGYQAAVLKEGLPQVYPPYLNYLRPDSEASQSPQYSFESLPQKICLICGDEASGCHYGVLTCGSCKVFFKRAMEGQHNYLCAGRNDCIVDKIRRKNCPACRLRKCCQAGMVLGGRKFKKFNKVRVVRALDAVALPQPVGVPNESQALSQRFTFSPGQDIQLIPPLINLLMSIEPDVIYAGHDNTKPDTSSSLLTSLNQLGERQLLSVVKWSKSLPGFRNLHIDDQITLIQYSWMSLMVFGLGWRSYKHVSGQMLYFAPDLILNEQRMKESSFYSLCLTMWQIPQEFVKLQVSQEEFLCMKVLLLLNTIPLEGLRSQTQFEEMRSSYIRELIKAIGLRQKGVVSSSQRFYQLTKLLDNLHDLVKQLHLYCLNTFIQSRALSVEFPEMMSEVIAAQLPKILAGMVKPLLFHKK
Kind of test: Receptor binding, inhibition of [3H]-R5020 binding in T-47D cytosol. The note with it: cytosol from human T-47D breast cells, 0.4 nM [3H]-R5020, 4 hours at 4° C.; read-out: Relative Binding Affinity hPR IC50. How it is done:
The receptor was obtained in cytosol from human T-47D breast cells and [^3H]-R5020 was used as the radioligand. T47D cells (1 billion/ml) were homogenized in TEDG buffer (10 mM Tris, 1.5 mM EDTA, 1 mM dithiothreitol, 1 mM sodium molybdate, and 10% glycerol) using a Dounce pestle A, and the homogenate was centrifuged at 34,000×g for 1 hour. The supernatant was stored at −80° C. An aliquot of receptor preparation was combined with test compound, 0.4 nM [^3H]-R5020, and TEDG buffer to a final volume of 150 μL and incubated for 4 hours at 4° C. in microtiter plates. At the end of incubation 40 μL 40% polyethylene glycol and 15 μL 1% human gamma globulin was added to the incubate and the contents of each well were harvested onto double thick B filter mats (Wallac LKB) using a TomTec harvester. A film of Meltilux scintillant wax was applied to the dried filter mats and the mats were counted in a scintillation counter to determine inhibition of [^3H]-R5020 binding. Data are expressed as IC50 values, i.e., the concentration of compound that inhibits radioligand binding by 50%.

In test [2] the test system is rabbits. The experiment in a line: McGinty test (progestational/agonist activity, McPhail score). The settings on record: rabbit; for McPhail Index, McGinty Assay (Agonist): test compound alone. Details: McPhail Index, McGinty Assay (Agonist): scale not given here. In kind it is in vivo. The text has this:
(§1) Results were scored according to McPhail (McPhail, J. Physiol., 83: 146 (1934)). These are standard procedures well-known to those skilled in the art. The results of these assays are shown in Tables 2 (agonist activity) and 3 (antagonist activity). […] Some compounds were extremely potent in this regard.

Test [3] concerns rabbits. The experiment in a line: Anti-McGinty test (antiprogestational/antagonist activity, test compound plus progesterone, McPhail score). In kind it is in vivo. Details: McPhail Index, Anti-McGinty Assay (Antagonist): scale not given here. The note with it: rabbit; for McPhail Index, Anti-McGinty Assay (Antagonist): test compound plus progesterone; for Blocking the action of progesterone in the anti-McGinty assay: dose of only 0.3 μg.
Description: as §1

A further test deals with immature female rabbits. Kind of test: Anti-estrogenic activity, uterine weight in estradiol-treated immature female rabbits. The note with it: ± S.E., no estradiol 216.7±37.2 mg. The class given is in vivo, rabbit.

As for `CC1CCC2(CCC3C4CCC5=CC(=O)CCC5=C4C(c4ccc(N(C)C)cc4)CC32C)N1O` (stereo not drawn) [11β-[4-(N,N-Dimethylamino)phenyl]-1′-hydroxy-5′-methyl-spiro[estra-4,9-dien-17β,2′-pyrrolidine]-3-one], the half-maximal inhibitory concentration (IC50) in test [1] was 5.2 nM. Also, the “McPhail Index, McGinty Assay (Agonist)” value with rabbits [2] (dose 0.3 micrograms), in the test with rabbits [2] (dose 3 micrograms) and in the test with rabbits [2] (dose 30 micrograms) was 0 ± 0 in each case. The “McPhail Index, Anti-McGinty Assay (Antagonist)” value (shortened to “McPhail Index … (Antagonist)”) came to 2.1 ± 0.3 in the test with rabbits [3] (dose 0.3 micrograms), 2.4 ± 0.4 with rabbits [3] (dose 3 micrograms) and 0.7 ± 0.4 with rabbits [3] (dose 30 micrograms).
Turning to `CN(C)c1ccc(C2CC3(C)C(CCC34CCCN4O)C3CCC4=CC(=O)CCC4=C23)cc1` (stereo not drawn) [11β-[4-(N,N-Dimethylamino)phenyl]-1′-hydroxy-spiro[estra4,9-dien-17β,2′-pyrrolidine]-3-one], the IC50 in test [1] was found to be 3.5 nM. The “McPhail Index, McGinty Assay (Agonist)” value in the test with rabbits [2] (dose 0.3 micrograms), in the test on rabbits [2] (dose 3 micrograms) and in the test with rabbits [2] (dose 30 micrograms) was 0 ± 0 in each case. Moreover, the “McPhail Index … (Antagonist)” value with rabbits [3] (dose 0.3 micrograms) turned out to be 2.7 ± 0.0; in the test with rabbits [3] (dose 3 micrograms), 2.3 ± 0.5; in the test on rabbits [3] (dose 30 micrograms) it was 0.07 ± 0.07.
Consider `CC#C[C@]1(NC=O)CC[C@H]2[C@@H]3CCC4=CC(=O)CCC4=C3[C@@H](c3ccc(N(C)C)cc3)C[C@@]21C` [11β-[4-(N,N-Dimethylamino)phenyl]-17β-(N-formamido)-17α-(1-propynyl)estra-4,9-dien-3-one], for which the IC50 in test [1] was determined as 0.7 nM. Also, the “McPhail Index, McGinty Assay (Agonist)” value in the test with rabbits [2] (dose 0.3 micrograms), in the test on rabbits [2] (dose 3 micrograms) and with rabbits [2] (dose 30 micrograms) was 0 ± 0 each time. Besides, the Uterine weight in the test on immature female rabbits (compound orally at 10 mg/day concurrently with 5 μg of estradiol per day) was found to be 716 ± 96.6 mg. Also, the “McPhail Index … (Antagonist)” value with rabbits [3] (dose 0.3 micrograms), with rabbits [3] (dose 3 micrograms) and with rabbits [3] (dose 30 micrograms) was 0 ± 0 in each case. For the same molecule, the “Blocking the action of progesterone in the anti-McGinty assay” value with rabbits [3] is given as “completely effective in blocking the action of progesterone”.
As to `CC#CC1(N(C)O)CCC2C3CCC4=CC(=O)CCC4=C3C(c3ccc(N(C)C)cc3)CC21C` (stereo not drawn) [11β-[4-(N,N-Dimethylamino)phenyl]-17β-(N-hydroxy-N-methylamino)-17α-(1-propynyl)estra-4,9-dien-3-one], in test [1], the IC50 worked out at 7.1 nM. Also, the “McPhail Index, McGinty Assay (Agonist)” value in the test on rabbits [2] (dose 0.3 micrograms), in the test on rabbits [2] (dose 3 micrograms) and with rabbits [2] (dose 30 micrograms) was 0 ± 0 each time. Moreover, the “McPhail Index … (Antagonist)” value in the test on rabbits [3] (dose 0.3 micrograms) is listed as 2.0 ± 0.2; in the test with rabbits [3] (dose 3 micrograms) it was 0 ± 0; with rabbits [3] (dose 30 micrograms), 0 ± 0.
Take `CC#C[C@]1(NO)CC[C@H]2[C@@H]3CCC4=CC(=O)CCC4=C3[C@@H](c3ccc(N(C)C)cc3)C[C@@]21C` [11β-[4-(N,N-Dimethylamino)phenyl]-17β-(N-hydroxylamino)-17α-(1-propynyl)estra-4,9-dien-3-one]: in test [1], the IC50 was 14.3 nM. For the same molecule, the “Progestational (agonist) activity in the McGinty assay” value in the test with rabbits [2] (at high doses) is reported as “some progestational (agonist) activity”. The “McPhail Index, McGinty Assay (Agonist)” value in the test on rabbits [2] (dose 0.3 micrograms) is 0 ± 0; with rabbits [2] (dose 3 micrograms) it was 0 ± 0; in the test on rabbits [2] (dose 30 micrograms), 0.7 ± 0.0. In addition, the “Progestational (agonist) activity in the anti-McGinty assay” value in the test with rabbits [3] (at the highest dose) is “some progestational (agonist) activity”. Moreover, the “McPhail Index … (Antagonist)” value in the test on rabbits [3] (dose 0.3 micrograms) is 0 ± 0; in the test with rabbits [3] (dose 3 micrograms), 0 ± 0; with rabbits [3] (dose 30 micrograms), 2.5 ± 0.4. The “Blocking the action of progesterone in the anti-McGinty assay” value with rabbits [3] is recorded as “completely effective in blocking the action of progesterone”.
In the case of `CC#CC1(NC(C)=O)CCC2C3CCC4=CC(=O)CCC4=C3C(c3ccc(N(C)C)cc3)CC21C` (stereo not drawn) [17β-(N-Acetamido)-11β-[4-(N,N-dimethylamino)phenyl]-17α-(1-propynyl)estra-4,9-dien-3-one], the half-maximal inhibitory concentration (IC50) in test [1] was 1.3 nM. The “McPhail Index, McGinty Assay (Agonist)” value in the test with rabbits [2] (dose 0.3 micrograms), in the test on rabbits [2] (dose 3 micrograms) and with rabbits [2] (dose 30 micrograms) was 0 ± 0 each time. In addition, the “McPhail Index … (Antagonist)” value in the test on rabbits [3] (dose 0.3 micrograms) is on record as 1.8 ± 0.3; in the test with rabbits [3] (dose 3 micrograms) it was 0.1 ± 0.1; in the test with rabbits [3] (dose 30 micrograms), 0 ± 0.
As for `CC#C[C@]1(N)CC[C@H]2[C@@H]3CCC4=CC(=O)CCC4=C3[C@@H](c3ccc(N(C)C)cc3)C[C@@]21C` [17β-Amino-11β-[4-(N,N-dimethylamino)phenyl]-17α-(1-propynyl)estra-4,9-dien-3-one], the IC50 in test [1] amounted to 8.3 nM. The “McPhail Index, McGinty Assay (Agonist)” value in the test on rabbits [2] (dose 0.3 micrograms), with rabbits [2] (dose 3 micrograms) and in the test with rabbits [2] (dose 30 micrograms) was 0 ± 0 each time. The “McPhail Index … (Antagonist)” value came out at 1.6 ± 0.3 in the test on rabbits [3] (dose 0.3 micrograms), 0.2 ± 0.1 in the test with rabbits [3] (dose 3 micrograms) and 0 ± 0 in the test on rabbits [3] (dose 30 micrograms).
In the test with immature female rabbits (estradiol alone, 5 μg per day), `C[C@]12CC[C@@H]3c4ccc(O)cc4CC[C@H]3[C@@H]1CC[C@@H]2O` [estradiol, reference compound] gave a Uterine weight of 1337 ± 105 mg.

Broadly, the IC50 is the concentration that inhibits the measured activity by half.
